Experiments:
Experiment in all cases: radiometric filter-binding kinase assay, Kinase HotSpot
Conditions in all cases: compound 0.5 µM; ATP 10 µM
[1] = molecular target: STK4 (human) (UniProt Q13043)
[2] = molecular target: HIPK2 (human) (UniProt Q9H2X6)
[3] = molecular target: FRK (human) (UniProt P42685)
[4] = molecular target: SLK (human) (UniProt Q9H2G2)
[5] = molecular target: NTRK2 (human) (UniProt Q16620)
[6] = molecular target: ROCK1 (human) (UniProt Q13464)
[7] = molecular target: FES (human) (UniProt P07332)
[8] = molecular target: AURKA (human) (UniProt O14965)
[9] = molecular target: PRKCH (human) (UniProt P24723)
[10] = molecular target: CHEK2 (human) (UniProt O96017)
[11] = molecular target: CSNK2A2 (human) (UniProt P19784)
[12] = molecular target: PRKCB1 (human) (UniProt P05771)
[13] = molecular target: MERTK (human) (UniProt Q12866)
[14] = molecular target: PRKCI (human) (UniProt P41743)
[15] = molecular target: NEK1 (human) (UniProt Q96PY6)
[16] = molecular target: HIPK4 (human) (UniProt Q8NE63)
[17] = molecular target: SGK3 (human) (UniProt Q96BR1)
[18] = molecular target: STK10 (human) (UniProt O94804)
[19] = molecular target: DYRK1B (human) (UniProt Q9Y463)
[20] = molecular target: JAK2 JH1 JH2 (human) (UniProt O60674)
[21] = molecular target: TEC (human) (UniProt P42680)
[22] = molecular target: CSK (human) (UniProt P41240)
[23] = molecular target: MAP3K10 (human) (UniProt Q02779)
[24] = molecular target: CLK2 (human) (UniProt P49760)
[25] = molecular target: EPHA5 (human) (UniProt P54756)
[26] = molecular target: ERBB2 (human) (UniProt P04626)
[27] = molecular target: CSNK1D (human) (UniProt P48730)
[28] = molecular target: WEE1 (human) (UniProt P30291)
[29] = molecular target: GSK3B (human) (UniProt P49841)
[30] = molecular target: STK24 (human) (UniProt Q9Y6E0)
[31] = molecular target: GRK6 (human) (UniProt P43250)
[32] = molecular target: PRKCD (human) (UniProt Q05655)
[33] = molecular target: DMPK (human) (UniProt Q09013)
[34] = molecular target: FGR (human) (UniProt P09769)
[35] = molecular target: BRSK2 (human) (UniProt Q8IWQ3)
[36] = molecular target: CDK6 CCND3 (human) (UniProt P30281+Q00534)
[37] = molecular target: NEK4 (human) (UniProt P51957)
[38] = molecular target: BMX (human) (UniProt P51813)
[39] = molecular target: MAP4K4 (human) (UniProt O95819)
[40] = molecular target: FGFR3 (human) (UniProt P22607)
[41] = molecular target: NEK11 (human) (UniProt Q8NG66)
[42] = molecular target: DAPK3 (human) (UniProt O43293)

Chain of MAP4K4 (human) (O95819 whole entry, looked up): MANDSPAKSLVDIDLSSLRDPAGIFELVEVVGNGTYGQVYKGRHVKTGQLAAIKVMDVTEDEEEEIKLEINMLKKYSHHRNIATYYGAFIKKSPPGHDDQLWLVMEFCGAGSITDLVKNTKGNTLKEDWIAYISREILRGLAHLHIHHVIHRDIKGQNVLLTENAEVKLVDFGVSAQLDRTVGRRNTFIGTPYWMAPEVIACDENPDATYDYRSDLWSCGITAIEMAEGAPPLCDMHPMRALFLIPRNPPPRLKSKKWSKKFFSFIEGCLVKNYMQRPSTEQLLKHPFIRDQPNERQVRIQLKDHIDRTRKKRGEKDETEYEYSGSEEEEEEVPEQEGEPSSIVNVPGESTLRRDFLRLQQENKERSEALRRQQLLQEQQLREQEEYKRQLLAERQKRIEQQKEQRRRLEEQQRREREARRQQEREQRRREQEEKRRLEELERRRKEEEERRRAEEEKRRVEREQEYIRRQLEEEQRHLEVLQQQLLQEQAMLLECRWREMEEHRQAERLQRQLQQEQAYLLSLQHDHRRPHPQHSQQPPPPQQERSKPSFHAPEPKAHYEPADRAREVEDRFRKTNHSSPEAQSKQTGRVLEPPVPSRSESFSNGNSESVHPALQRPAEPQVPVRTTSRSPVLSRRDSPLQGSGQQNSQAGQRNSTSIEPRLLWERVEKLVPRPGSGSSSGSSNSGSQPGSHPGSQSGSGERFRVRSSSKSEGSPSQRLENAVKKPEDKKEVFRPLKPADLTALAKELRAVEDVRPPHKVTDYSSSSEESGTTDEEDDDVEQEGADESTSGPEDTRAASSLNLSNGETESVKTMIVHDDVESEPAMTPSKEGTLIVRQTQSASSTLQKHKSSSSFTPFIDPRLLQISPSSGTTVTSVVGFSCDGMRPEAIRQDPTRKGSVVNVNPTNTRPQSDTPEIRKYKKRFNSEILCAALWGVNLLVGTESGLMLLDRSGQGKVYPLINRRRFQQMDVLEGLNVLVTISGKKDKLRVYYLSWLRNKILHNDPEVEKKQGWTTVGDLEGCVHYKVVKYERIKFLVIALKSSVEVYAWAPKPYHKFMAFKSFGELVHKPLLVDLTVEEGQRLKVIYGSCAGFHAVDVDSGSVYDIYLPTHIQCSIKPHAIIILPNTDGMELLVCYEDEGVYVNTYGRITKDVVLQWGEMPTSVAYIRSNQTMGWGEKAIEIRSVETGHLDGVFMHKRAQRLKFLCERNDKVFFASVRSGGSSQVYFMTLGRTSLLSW
Chain of GRK6 (human) (P43250 whole entry, looked up): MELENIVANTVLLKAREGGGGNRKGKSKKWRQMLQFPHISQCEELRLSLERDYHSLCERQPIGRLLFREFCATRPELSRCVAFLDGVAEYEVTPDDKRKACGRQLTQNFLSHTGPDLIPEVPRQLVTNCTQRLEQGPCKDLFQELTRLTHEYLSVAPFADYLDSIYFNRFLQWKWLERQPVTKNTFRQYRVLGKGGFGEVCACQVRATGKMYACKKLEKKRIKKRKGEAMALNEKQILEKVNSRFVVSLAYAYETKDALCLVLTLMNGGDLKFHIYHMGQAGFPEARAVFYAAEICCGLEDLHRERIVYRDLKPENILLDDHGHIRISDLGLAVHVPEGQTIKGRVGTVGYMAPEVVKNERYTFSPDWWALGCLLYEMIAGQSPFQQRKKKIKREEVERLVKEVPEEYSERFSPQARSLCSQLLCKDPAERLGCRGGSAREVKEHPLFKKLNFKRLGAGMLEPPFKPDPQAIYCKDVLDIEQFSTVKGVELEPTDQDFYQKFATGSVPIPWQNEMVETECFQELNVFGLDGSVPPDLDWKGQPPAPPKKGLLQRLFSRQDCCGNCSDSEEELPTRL
Chain of ROCK1 (human) (Q13464 whole entry, looked up): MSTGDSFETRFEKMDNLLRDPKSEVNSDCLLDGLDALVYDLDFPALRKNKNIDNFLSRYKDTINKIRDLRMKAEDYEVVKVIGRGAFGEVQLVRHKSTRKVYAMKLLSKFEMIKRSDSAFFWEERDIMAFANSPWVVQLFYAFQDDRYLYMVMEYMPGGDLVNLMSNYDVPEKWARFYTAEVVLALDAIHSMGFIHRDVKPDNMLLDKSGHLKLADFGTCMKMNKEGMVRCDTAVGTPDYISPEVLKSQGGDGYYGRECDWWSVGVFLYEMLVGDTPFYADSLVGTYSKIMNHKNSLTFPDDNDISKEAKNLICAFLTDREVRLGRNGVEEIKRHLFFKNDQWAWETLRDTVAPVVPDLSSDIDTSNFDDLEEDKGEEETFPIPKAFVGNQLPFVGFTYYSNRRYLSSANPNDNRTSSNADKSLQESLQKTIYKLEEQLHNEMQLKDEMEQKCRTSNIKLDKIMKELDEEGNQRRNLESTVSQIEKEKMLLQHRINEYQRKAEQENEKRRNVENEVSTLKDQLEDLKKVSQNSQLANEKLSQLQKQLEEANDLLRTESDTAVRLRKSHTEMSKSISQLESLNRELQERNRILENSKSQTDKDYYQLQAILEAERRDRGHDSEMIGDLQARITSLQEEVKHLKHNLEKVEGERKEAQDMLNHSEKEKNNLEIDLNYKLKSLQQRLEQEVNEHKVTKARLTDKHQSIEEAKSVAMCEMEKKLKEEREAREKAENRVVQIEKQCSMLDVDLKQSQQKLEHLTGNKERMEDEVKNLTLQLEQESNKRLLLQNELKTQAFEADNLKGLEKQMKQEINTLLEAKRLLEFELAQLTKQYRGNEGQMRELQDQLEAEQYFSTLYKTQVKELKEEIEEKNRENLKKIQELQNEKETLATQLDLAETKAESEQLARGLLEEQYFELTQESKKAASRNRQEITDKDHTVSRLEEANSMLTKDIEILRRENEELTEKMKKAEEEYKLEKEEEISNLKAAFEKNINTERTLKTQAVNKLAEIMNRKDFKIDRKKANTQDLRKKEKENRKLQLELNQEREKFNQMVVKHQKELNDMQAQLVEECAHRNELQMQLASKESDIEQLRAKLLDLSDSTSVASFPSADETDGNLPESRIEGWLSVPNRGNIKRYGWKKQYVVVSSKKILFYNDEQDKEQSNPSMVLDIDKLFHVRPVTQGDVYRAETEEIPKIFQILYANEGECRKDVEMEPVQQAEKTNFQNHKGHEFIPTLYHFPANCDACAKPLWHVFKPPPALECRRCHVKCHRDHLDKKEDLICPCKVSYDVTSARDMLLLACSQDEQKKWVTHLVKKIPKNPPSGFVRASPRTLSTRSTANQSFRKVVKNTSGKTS
Chain of MERTK (human) (Q12866 whole entry, looked up): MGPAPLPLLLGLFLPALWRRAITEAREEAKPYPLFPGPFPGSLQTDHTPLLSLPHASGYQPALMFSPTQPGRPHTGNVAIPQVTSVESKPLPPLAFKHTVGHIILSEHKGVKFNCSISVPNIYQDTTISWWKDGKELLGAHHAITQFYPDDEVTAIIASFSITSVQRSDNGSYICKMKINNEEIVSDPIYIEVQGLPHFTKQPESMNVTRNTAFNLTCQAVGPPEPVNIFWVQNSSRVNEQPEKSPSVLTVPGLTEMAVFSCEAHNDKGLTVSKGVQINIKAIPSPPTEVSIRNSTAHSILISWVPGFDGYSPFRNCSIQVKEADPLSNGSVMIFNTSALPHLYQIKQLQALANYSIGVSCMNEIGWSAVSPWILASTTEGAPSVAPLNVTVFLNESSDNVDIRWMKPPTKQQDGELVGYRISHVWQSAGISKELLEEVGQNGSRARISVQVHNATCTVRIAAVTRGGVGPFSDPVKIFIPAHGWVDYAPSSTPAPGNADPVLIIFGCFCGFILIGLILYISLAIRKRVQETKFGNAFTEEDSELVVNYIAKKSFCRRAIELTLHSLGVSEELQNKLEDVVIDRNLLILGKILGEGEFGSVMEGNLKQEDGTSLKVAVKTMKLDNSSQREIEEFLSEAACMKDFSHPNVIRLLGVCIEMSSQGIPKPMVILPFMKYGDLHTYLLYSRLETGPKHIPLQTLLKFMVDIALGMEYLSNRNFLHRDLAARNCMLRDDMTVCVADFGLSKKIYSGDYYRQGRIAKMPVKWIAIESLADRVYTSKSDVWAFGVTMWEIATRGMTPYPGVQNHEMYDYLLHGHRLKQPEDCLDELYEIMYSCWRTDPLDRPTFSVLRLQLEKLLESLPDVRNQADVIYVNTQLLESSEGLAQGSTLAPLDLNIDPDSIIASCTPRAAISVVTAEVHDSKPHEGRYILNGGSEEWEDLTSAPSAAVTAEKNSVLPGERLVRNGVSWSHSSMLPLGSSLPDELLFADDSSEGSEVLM
Chain of TEC (human) (P42680 whole entry, looked up): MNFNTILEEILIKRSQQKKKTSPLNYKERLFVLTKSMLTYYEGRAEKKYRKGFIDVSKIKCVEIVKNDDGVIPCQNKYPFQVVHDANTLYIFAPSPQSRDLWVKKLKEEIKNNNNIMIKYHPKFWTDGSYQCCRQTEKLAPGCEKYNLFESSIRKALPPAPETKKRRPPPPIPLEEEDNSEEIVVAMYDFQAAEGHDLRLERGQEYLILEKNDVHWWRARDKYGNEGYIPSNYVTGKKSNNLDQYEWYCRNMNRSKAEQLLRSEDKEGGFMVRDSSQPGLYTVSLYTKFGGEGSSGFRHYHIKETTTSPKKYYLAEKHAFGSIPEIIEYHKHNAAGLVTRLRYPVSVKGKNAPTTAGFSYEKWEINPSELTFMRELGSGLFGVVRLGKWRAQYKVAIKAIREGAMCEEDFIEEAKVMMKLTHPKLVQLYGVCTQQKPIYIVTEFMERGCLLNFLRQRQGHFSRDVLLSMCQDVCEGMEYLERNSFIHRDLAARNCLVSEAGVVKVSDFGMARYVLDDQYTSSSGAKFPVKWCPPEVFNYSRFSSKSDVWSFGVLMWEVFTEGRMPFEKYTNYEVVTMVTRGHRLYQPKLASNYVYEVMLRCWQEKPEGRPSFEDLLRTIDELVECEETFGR

COc1cc2c(cc1OC)-c1[nH]nc(Nc3cccc(F)c3)c1C2
residual activity [1]: 91.5%
residual activity [2]: 103%
residual activity [3]: 67.9%
residual activity [4]: 95.4%
residual activity [5]: 102%
residual activity [6]: 87.5%
residual activity [7]: 95.6%
residual activity [8]: 94.6%
residual activity [9]: 92.1%
residual activity [10]: 96.5%
residual activity [11]: 105%
residual activity [12]: 96%
residual activity [13]: 78.7%
residual activity [14]: 95.5%
residual activity [15]: 93%
residual activity [16]: 90%
residual activity [17]: 92.7%
residual activity [18]: 89%
residual activity [19]: 102%
residual activity [20]: 107%
residual activity [21]: 95%
residual activity [22]: 44.9%
residual activity [23]: 87.1%
residual activity [24]: 84.3%
residual activity [25]: 93.4%
residual activity [26]: 101%
residual activity [27]: 99.9%
residual activity [28]: 93%
residual activity [29]: 96.6%
residual activity [30]: 99.9%
residual activity [31]: 89.4%
residual activity [32]: 111%
residual activity [33]: 109%
residual activity [34]: 47.2%
residual activity [35]: 92.1%
residual activity [36]: 99.5%
residual activity [37]: 101%
residual activity [38]: 74.8%
residual activity [39]: 55.5%
residual activity [40]: 99.6%
residual activity [41]: 98.9%
residual activity [42]: 100%

O=C1NC(=O)c2cc(Nc3ccc(F)cc3)c(Nc3ccc(F)cc3)cc21
residual activity [1]: 101%
residual activity [2]: 96.6%
residual activity [3]: 97.2%
residual activity [4]: 65.5%
residual activity [5]: 91.9%
residual activity [6]: 96.7%
residual activity [7]: 99.5%
residual activity [8]: 92.7%
residual activity [9]: 83.3%
residual activity [10]: 94.3%
residual activity [11]: 104%
residual activity [12]: 28.2%
residual activity [13]: 97.4%
residual activity [14]: 89%
residual activity [15]: 88%
residual activity [16]: 82.5%
residual activity [17]: 102%
residual activity [18]: 79.2%
residual activity [19]: 105%
residual activity [20]: 94.6%
residual activity [21]: 102%
residual activity [22]: 92%
residual activity [23]: 90.6%
residual activity [24]: 88.1%
residual activity [25]: 95.4%
residual activity [26]: 107%
residual activity [27]: 109%
residual activity [28]: 99.6%
residual activity [29]: 89.2%
residual activity [30]: 93.7%
residual activity [31]: 98.7%
residual activity [32]: 98.2%
residual activity [33]: 108%
residual activity [34]: 96.3%
residual activity [35]: 96.8%
residual activity [36]: 89.9%
residual activity [37]: 107%
residual activity [38]: 95.3%
residual activity [39]: 91.2%
residual activity [40]: 99.7%
residual activity [41]: 103%
residual activity [42]: 101%

O=C1NC(=O)c2c1c1c3ccccc3[nH]c1c1[nH]c3cc(Br)ccc3c21
residual activity [1]: 52%
residual activity [2]: 107%
residual activity [3]: 93.9%
residual activity [4]: 90.9%
residual activity [5]: 68.1%
residual activity [6]: 93.9%
residual activity [7]: 88.1%
residual activity [8]: 60.7%
residual activity [9]: 100%
residual activity [10]: 37.5%
residual activity [11]: 93.2%
residual activity [12]: 78.6%
residual activity [13]: 69.1%
residual activity [14]: 96.2%
residual activity [15]: 89.1%
residual activity [16]: 94.1%
residual activity [17]: 97.2%
residual activity [18]: 84.6%
residual activity [19]: 82.8%
residual activity [20]: 95.8%
residual activity [21]: 105%
residual activity [22]: 100%
residual activity [23]: 70.4%
residual activity [24]: 84.7%
residual activity [25]: 90.5%
residual activity [26]: 101%
residual activity [27]: 96.9%
residual activity [28]: 74.6%
residual activity [29]: 63.7%
residual activity [30]: 80.1%
residual activity [31]: 108%
residual activity [32]: 99.1%
residual activity [33]: 104%
residual activity [34]: 88.8%
residual activity [35]: 35.6%
residual activity [36]: 40.2%
residual activity [37]: 89%
residual activity [38]: 92%
residual activity [39]: 29.3%
residual activity [40]: 86.2%
residual activity [41]: 109%
residual activity [42]: 62.9%

— the kinase profiling compilation of Christmann-Franck et al. (2016)
